Laboratory results published in ChEMBL document CHEMBL4411307, “N,N'-diaryl-bishydrazones in a biphenyl platform: Broad spectrum antifungal agents” (Eur J Med Chem, 2019).
≈ marks a conversion by molar mass, not a printed value. Calls of active or inactive are those of the source. The rule behind the calls is not given here.

Tests used:
[1] = test system: Listeria monocytogenes; test: Antibacterial activity against Listeria monocytogenes; format: functional, organism-based
[2] = test system: Staphylococcus aureus; test: Antibacterial activity against methicillin-resistant Staphylococcus aureus; format: functional, organism-based
[3] = test system: Enterococcus; test: Antibacterial activity against vancomycin-resistant Enterococcus; format: functional, organism-based
[4] = test system: Candida albicans; test: Antifungal activity against fluconazole/ITC-resistant Candida albicans ATCC 10231 measured after 48 hrs by CLSI M27-A3 protocol based method; format: functional; details: ATCC 10231, 48 h
[5] = test system: Candida albicans; test: Antifungal activity against fluconazole/ITC-resistant Candida albicans ATCC 64124 measured after 48 hrs by CLSI M27-A3 protocol based method; format: functional; details: ATCC 64124, 48 h
[6] = test system: Candida albicans; test: Antifungal activity against fluconazole/ITC-susceptible Candida albicans ATCC MYA-2876 measured after 48 hrs by CLSI M27-A3 protocol based method; format: functional; details: ATCC MYA-2876, 48 h
[7] = test system: Candida albicans; test: Antifungal activity against fluconazole/ITC-resistant Candida albicans ATCC 90819 measured after 48 hrs by CLSI M27-A3 protocol based method; format: functional; details: ATCC 90819, 48 h
[8] = test system: Candida albicans; test: Antifungal activity against fluconazole/ITC-susceptible Candida albicans ATCC MYA-2310 measured after 48 hrs by CLSI M27-A3 protocol based method; format: functional; details: ATCC MYA-2310, 48 h
[9] = test system: Candida albicans; test: Antifungal activity against fluconazole/ITC-resistant Candida albicans ATCC MYA-1237 measured after 48 hrs by CLSI M27-A3 protocol based method; format: functional; details: ATCC MYA-1237, 48 h
[10] = test system: Candida albicans; test: Antifungal activity against fluconazole/ITC-resistant Candida albicans ATCC MYA-1003 measured after 48 hrs by CLSI M27-A3 protocol based method; format: functional; details: ATCC MYA-1003, 48 h
[11] = test system: Nakaseomyces glabratus; test: Antifungal activity against Candida glabrata ATCC 2001 measured after 48 hrs by CLSI M27-A3 protocol based method; format: functional; details: CBS 138, 48 h
[12] = test system: Pichia kudriavzevii; test: Antifungal activity against Candida krusei ATCC 6258 measured after 48 hrs by CLSI M27-A3 protocol based method; format: functional; details: ATCC 6258, 48 h
[13] = test system: Candida parapsilosis; test: Antifungal activity against Candida parapsilosis ATCC 22019 measured after 48 hrs by CLSI M27-A3 protocol based method; format: functional; details: Lodderomyces parapsilosis, ATCC 22019, 48 h
[14] = test system: Aspergillus flavus; test: Antifungal activity against Aspergillus flavus ATCC MYA-3631 measured after 48 hrs by CLSI M38-A2 protocol based method; format: functional; details: ATCC MYA-3631, 48 h
[15] = test system: Aspergillus nidulans; test: Antifungal activity against Aspergillus nidulans ATCC 38163 measured after 48 hrs by CLSI M38-A2 protocol based method; format: functional; details: ATCC 38163, 48 h
[16] = test system: Aspergillus terreus; test: Antifungal activity against Aspergillus terreus ATCC MYA-3633 measured after 48 hrs by CLSI M38-A2 protocol based method; format: functional; details: ATCC MYA-3633, 48 h
[17] = test system: A549; test: Cytotoxicity against human A549 cells after 24 hrs by resazurin based assay; format: cell-based; details: a549, 24 h
[18] = test system: BEAS-2B; test: Cytotoxicity against human BEAS2B cells after 24 hrs by resazurin based assay; format: cell-based
[19] = Hemolytic activity in mouse RBC at […] after 1 hr relative to control; format: ADME, cell-based, Erythrocyte; details: red blood cells (erythrocytes), read-out: Activity; also: tested at 0.48 µg/mL
[20] = Hemolytic activity in mouse RBC at […] ug/ml after 1 hr relative to control; format: ADME, cell-based, Erythrocyte; details: red blood cells (erythrocytes), read-out: Activity
[21] = Hemolytic activity in mouse RBC at 1.95 ug/ml after 1 hr relative to control; format: ADME, cell-based, Erythrocyte; details: red blood cells (erythrocytes), read-out: Activity
[22] = Hemolytic activity in mouse RBC at 3.9 ug/ml after 1 hr relative to control; format: ADME, cell-based, Erythrocyte; details: red blood cells (erythrocytes), read-out: Activity
[23] = Hemolytic activity in mouse RBC at 7.8 ug/ml after 1 hr relative to control; format: ADME, cell-based, Erythrocyte; details: red blood cells (erythrocytes), read-out: Activity
[24] = Hemolytic activity in mouse RBC at 31.3 ug/ml after 1 hr relative to control; format: ADME, cell-based, Erythrocyte; details: red blood cells (erythrocytes), read-out: Activity
[25] = Hemolytic activity in mouse RBC at 62.5 ug/ml after 1 hr relative to control; format: ADME, cell-based, Erythrocyte; details: red blood cells (erythrocytes), read-out: Activity

SMILES	Activity [1]	Activity [2]	Activity [3]	MIC [4] [µg/mL]	MIC [5] [µg/mL]	MIC [6] [µg/mL]	MIC [7] [µg/mL]	MIC [8] [µg/mL]	MIC [9] [µg/mL]	MIC [10] [µg/mL]	MIC [11] [µg/mL]	MIC [12] [µg/mL]	MIC [13] [µg/mL]	MIC [14] [µg/mL]	MIC [15] [µg/mL]	MIC [16] [µg/mL]	other results
CC(C)Oc1ccc(N/N=C/c2ccc(-c3ccc(/C=N/Nc4ccc(OC(C)C)cc4)cc3)cc2)cc1	inactive	inactive	inactive	> 31.3	> 31.3	> 31.3	> 31.3	> 31.3	> 31.3	> 31.3	> 31.3	> 31.3	> 31.3	> 31.3	> 31.3	> 31.3	–
COc1ccccc1N/N=C(\C)c1ccc(-c2ccc(/C(C)=N/Nc3ccccc3OC)cc2)cc1	inactive	inactive	inactive	15.6 (≈ 32.6 µM)	> 31.3	> 31.3	> 31.3	> 31.3	> 31.3	31.3 (≈ 65.4 µM)	> 31.3	31.3 (≈ 65.4 µM)	31.3 (≈ 65.4 µM)	> 31.3	> 31.3	> 31.3	–
COc1cccc(N/N=C(\C)c2ccc(-c3ccc(/C(C)=N/Nc4cccc(OC)c4)cc3)cc2)c1	inactive	inactive	inactive	0.98 (≈ 2.05 µM)	0.98 (≈ 2.05 µM)	15.6 (≈ 32.6 µM)	31.3 (≈ 65.4 µM)	15.6 (≈ 32.6 µM)	31.3 (≈ 65.4 µM)	3.9 (≈ 8.15 µM)	15.6 (≈ 32.6 µM)	0.98 (≈ 2.05 µM)	15.6 (≈ 32.6 µM)	> 31.3	> 31.3	> 31.3	–
N=C(N)N/N=C/c1ccc(-c2cccc(/C=N/NC(=N)N)c2)cc1	–	–	–	1.95 to 3.9 (≈ 6.05 to 12.1 µM)	3.9 (≈ 12.1 µM)	3.9 (≈ 12.1 µM)	> 31.3	3.9 (≈ 12.1 µM)	7.8 (≈ 24.2 µM)	> 31.3	3.9 (≈ 12.1 µM)	1.95 (≈ 6.05 µM)	1.95 (≈ 6.05 µM)	> 31.3	7.8 (≈ 24.2 µM)	7.8 (≈ 24.2 µM)	CC50 [17]: 5.3 µg/mL (≈ 16.4 µM); CC50 [18]: 2.9 µg/mL (≈ 9 µM); hemolysis at 1 h, […] [19]: 0%; hemolysis at 1 h, 15.6 ug/ml ([20]; at 15.6 µg/mL): 3.8%; hemolysis at 1 h, 0.975 ug/ml [20]: 0%; hemolysis at 1 h, 1.95 ug/ml [21]: 1.1%; hemolysis at 1 h, 3.9 ug/ml [22]: 1.2%; hemolysis at 1 h, 7.8 ug/ml [23]: 2.3%; hemolysis at 1 h, 31.3 ug/ml [24]: 3.8%; hemolysis at 1 h, 62.5 ug/ml [25]: 13.1%
